Measurements reported in US10765114B2, “4-amino-6-(pyridyl and 2-substitutedphenyl)-picolinates and 6-amino-2-(pyridyl and 2-substitutedphenyl)-pyrimidine-4-carboxylates and their use as herbicides” (Dow AgroSciences LLC, priority 2013, dated 2020).
Like-named read-outs stand apart in the source and are kept apart here.

Experiments:
[1] = system: Key Grass and Sedge Weeds as well as Grass Crops; test: Post-Emergent Test II (Table 6); format: in vivo; settings: post-emergence, 336 h, 14 days after application; for pest or weed control at 70 g/ha: 70 g ai/ha; for pest or weed control at 140 g/ha: 140 g ai/ha
How it was run: (§1)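 Visual injury ratings (0 = no injury, 100 = complete kill) taken 14 days after treatment, relative to untreated controls. Compounds, in an acetone/DMSO aqueous carrier with crop oil and surfactant, were applied by track sprayer at 187 L/ha, in a twofold dilution series from the top rate, to plants at the first to second true-leaf stage.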

[2] = system: Key Broadleaf Weed and Crop Species; test: Post-Emergent Test II (Table 5); format: in vivo; settings: post-emergence, 336 h; for pest or weed control at 70 g/ha: application rate 70 (kg ai/ha; footnote: g ai/ha); for pest or weed control at 140 g/ha: application rate 140 (kg ai/ha; footnote: g ai/ha)
How it was run: as §1

[3] = CYPSS, read-out: Visual Growth Reduction (%) 14 Days After Application CYPSS
[4] = DIGSA: crabgrass (Digitaria sanguinalis), read-out: Visual Growth Reduction (%) 14 Days After Application DIGSA
[5] = ECHSS, read-out: Visual Growth Reduction (%) 14 Days After Application ECHSS
[6] = ORYSS (crop), read-out: Visual Growth Reduction (%) 14 Days After Application ORYSS
[7] = SETFA: giant foxtail (Setaria faberi), read-out: Visual Growth Reduction (%) 14 Days After Application SETFA
[8] = SORVU: grain sorghum (Sorghum vulgare), read-out: Visual Growth Reduction (%) 14 Days After Application SORVU
[9] = TRZSS (crop), read-out: Visual Growth Reduction (%) 14 Days After Application TRZSS
[10] = ZEAMX: maize, corn (Zea mays), read-out: Visual Growth Reduction (%) 14 Days After Application ZEAMX
[11] = Abutilon theophrasti, ABUTH: velvetleaf (Abutilon theophrasti), read-out: Visual Growth Reduction (%) 14 Days After Application ABUTH
[12] = Amaranthus retroflexus, AMARE: redroot pigweed (Amaranthus retroflexus), read-out: Visual Growth Reduction (%) 14 Days After Application AMARE
[13] = Brassica napus, BRSSS: oilseed rape, canola (Brassica napus), read-out: Visual Growth Reduction (%) 14 Days After Application BRSSS
[14] = Chenopodium album, CHEAL: lambsquarters (Chenopodium album), read-out: Visual Growth Reduction (%) 14 Days After Application CHEAL
[15] = Euphorbia heterophylla, EPHHL: wild poinsettia (Euphorbia heterophylla), read-out: Visual Growth Reduction (%) 14 Days After Application EPHHL
[16] = Helianthus annuus, HELAN: sunflower (Helianthus annuus), read-out: Visual Growth Reduction (%) 14 Days After Application HELAN
[17] = Viola tricolor, VIOTR: wild pansy (Viola tricolor), read-out: Visual Growth Reduction (%) 14 Days After Application VIOTR

With COC(=O)c1nc(-c2ccc(C(F)(F)F)nc2F)nc(N)c1Cl [Compound 47] the pest or weed control at 70 g/ha [1, 3] was 0 to 29%, the pest or weed control at 140 g/ha [1, 3] was 0 to 29% and the pest or weed control at 70 g/ha [1, 4] was 0 to 29%. The pest or weed control at 140 g/ha [1, 4] was 0 to 29%, the pest or weed control at 70 g/ha [1, 5] was 0 to 29% and the pest or weed control at 140 g/ha [1, 5] was 0 to 29%. The pest or weed control at 70 g/ha [1, 6] was 0 to 29%, the pest or weed control at 140 g/ha [1, 6] was 0 to 29% and the pest or weed control at 70 g/ha [1, 7] was 0 to 29%. For the same molecule, the pest or weed control at 140 g/ha [1, 7] was 0 to 29%, the pest or weed control at 70 g/ha [1, 8] was 0 to 29% and the pest or weed control at 140 g/ha [1, 8] was 0 to 29%. The pest or weed control at 70 g/ha [1, 9] was 0 to 29%, the pest or weed control at 140 g/ha [1, 9] was 0 to 29% and the pest or weed control at 70 g/ha [1, 10] was 0 to 29%. For the same molecule, the pest or weed control at 140 g/ha [1, 10] was 0 to 29%, the pest or weed control at 70 g/ha [2, 11] was 0 to 29% and the pest or weed control at 140 g/ha [2, 11] was 0 to 29%. The pest or weed control at 70 g/ha [2, 12] was 0 to 29%, the pest or weed control at 140 g/ha [2, 12] was 0 to 29% and the pest or weed control at 70 g/ha [2, 13] was 0 to 29%. For the same molecule, the pest or weed control at 140 g/ha [2, 13] was 0 to 29%, the pest or weed control at 70 g/ha [2, 14] was 0 to 29% and the pest or weed control at 140 g/ha [2, 14] was 45 to 59%. It also gave a pest or weed control at 70 g/ha [2, 15] of 0 to 29%, a pest or weed control at 140 g/ha [2, 15] of 0 to 29% and a pest or weed control at 70 g/ha [2, 16] of 0 to 29%. The pest or weed control at 140 g/ha [2, 16] was 0 to 29%, the pest or weed control at 70 g/ha [2, 17] was 0 to 29% and the pest or weed control at 140 g/ha [2, 17] was 0 to 29%. For the same molecule, the melting point was 150 to 153 °C.
Molecule COC(=O)c1nc(-c2ccc(Cl)nc2OC)cc(N)c1Cl [Compound 48] has a pest or weed control at 70 g/ha [1, 3] of 0 to 29%, a pest or weed control at 140 g/ha [1, 3] of 0 to 29% and a pest or weed control at 70 g/ha [1, 4] of 0 to 29%. It also gave a pest or weed control at 140 g/ha [1, 4] of 0 to 29%, a pest or weed control at 70 g/ha [1, 5] of 0 to 29% and a pest or weed control at 140 g/ha [1, 5] of 0 to 29%. For the same molecule, the pest or weed control at 70 g/ha [1, 6] was 0 to 29%, the pest or weed control at 140 g/ha [1, 6] was 0 to 29% and the pest or weed control at 70 g/ha [1, 7] was 0 to 29%. For the same molecule, the pest or weed control at 140 g/ha [1, 7] was 0 to 29%, the pest or weed control at 70 g/ha [1, 8] was 0 to 29% and the pest or weed control at 140 g/ha [1, 8] was 0 to 29%. It also gave a pest or weed control at 70 g/ha [1, 9] of 0 to 29%, a pest or weed control at 140 g/ha [1, 9] of 0 to 29% and a pest or weed control at 70 g/ha [1, 10] of 0 to 29%. The pest or weed control at 140 g/ha [1, 10] was 45 to 59%, the pest or weed control at 70 g/ha [2, 11] was 85 to 94% and the pest or weed control at 140 g/ha [2, 11] was 85 to 94%. The pest or weed control at 70 g/ha [2, 12] was 95 to 100%, the pest or weed control at 140 g/ha [2, 12] was 95 to 100% and the pest or weed control at 70 g/ha [2, 13] was 0 to 29%. For the same molecule, the pest or weed control at 140 g/ha [2, 13] was 45 to 59%, the pest or weed control at 70 g/ha [2, 14] was 95 to 100% and the pest or weed control at 140 g/ha [2, 14] was 95 to 100%. It also gave a pest or weed control at 70 g/ha [2, 15] of 0 to 29%, a pest or weed control at 140 g/ha [2, 15] of 0 to 29% and a pest or weed control at 70 g/ha [2, 16] of 85 to 94%. The pest or weed control at 140 g/ha [2, 16] was 85 to 94%, the pest or weed control at 70 g/ha [2, 17] was 45 to 59% and the pest or weed control at 140 g/ha [2, 17] was 60 to 74%. The melting point was 109 to 111 °C.
COC(=O)c1nc(-c2ccc(C3CC3)nc2)c(F)c(N)c1Cl [Compound 49] showed a pest or weed control at 70 g/ha [1, 3] of 95 to 100%, a pest or weed control at 140 g/ha [1, 3] of 95 to 100% and a pest or weed control at 70 g/ha [1, 4] of 75 to 84%. It also gave a pest or weed control at 140 g/ha [1, 4] of 75 to 84%, a pest or weed control at 70 g/ha [1, 5] of 95 to 100% and a pest or weed control at 140 g/ha [1, 5] of 95 to 100%. For the same molecule, the pest or weed control at 70 g/ha [1, 6] was 30 to 44%, the pest or weed control at 140 g/ha [1, 6] was 30 to 44% and the pest or weed control at 70 g/ha [1, 7] was 85 to 94%. For the same molecule, the pest or weed control at 140 g/ha [1, 7] was 85 to 94%, the pest or weed control at 70 g/ha [1, 8] was 85 to 94% and the pest or weed control at 140 g/ha [1, 8] was 85 to 94%. It also gave a pest or weed control at 70 g/ha [1, 9] of 45 to 59%, a pest or weed control at 140 g/ha [1, 9] of 45 to 59% and a pest or weed control at 70 g/ha [1, 10] of 95 to 100%. It also gave a pest or weed control at 140 g/ha [1, 10] of 95 to 100%, a pest or weed control at 70 g/ha [2, 11] of 95 to 100% and a pest or weed control at 140 g/ha [2, 11] of 95 to 100%. The pest or weed control at 70 g/ha [2, 12] was 95 to 100%, the pest or weed control at 140 g/ha [2, 12] was 95 to 100% and the pest or weed control at 70 g/ha [2, 13] was 75 to 84%. It also gave a pest or weed control at 140 g/ha [2, 13] of 75 to 84%, a pest or weed control at 70 g/ha [2, 14] of 95 to 100% and a pest or weed control at 140 g/ha [2, 14] of 95 to 100%. It also gave a pest or weed control at 70 g/ha [2, 15] of 95 to 100%, a pest or weed control at 140 g/ha [2, 15] of 95 to 100% and a pest or weed control at 70 g/ha [2, 16] of 95 to 100%. For the same molecule, the pest or weed control at 140 g/ha [2, 16] was 95 to 100%, the pest or weed control at 70 g/ha [2, 17] was 30 to 44% and the pest or weed control at 140 g/ha [2, 17] was 45 to 59%. For the same molecule, the melting point was 124 to 126 °C.
COC(=O)c1nc(-c2cccnc2)c(F)c(N)c1Cl [Compound 50] showed a pest or weed control at 70 g/ha [1, 3] of 0 to 29%, a pest or weed control at 140 g/ha [1, 3] of 0 to 29% and a pest or weed control at 70 g/ha [1, 4] of 0 to 29%. The pest or weed control at 140 g/ha [1, 4] was 0 to 29%, the pest or weed control at 70 g/ha [1, 5] was 0 to 29% and the pest or weed control at 140 g/ha [1, 5] was 0 to 29%. It also gave a pest or weed control at 70 g/ha [1, 6] of 0 to 29%, a pest or weed control at 140 g/ha [1, 6] of 0 to 29% and a pest or weed control at 140 g/ha [1, 7] of 60 to 74%. The pest or weed control at 70 g/ha [1, 8] was 0 to 29%, the pest or weed control at 140 g/ha [1, 8] was 0 to 29% and the pest or weed control at 70 g/ha [1, 9] was 0 to 29%. It also gave a pest or weed control at 140 g/ha [1, 9] of 0 to 29%, a pest or weed control at 70 g/ha [1, 10] of 0 to 29% and a pest or weed control at 140 g/ha [1, 10] of 0 to 29%. It also gave a pest or weed control at 70 g/ha [2, 11] of 0 to 29%, a pest or weed control at 140 g/ha [2, 11] of 0 to 29% and a pest or weed control at 70 g/ha [2, 12] of 0 to 29%. The pest or weed control at 140 g/ha [2, 12] was 95 to 100%, the pest or weed control at 70 g/ha [2, 13] was 0 to 29% and the pest or weed control at 140 g/ha [2, 13] was 30 to 44%. The pest or weed control at 70 g/ha [2, 14] was 75 to 84%, the pest or weed control at 140 g/ha [2, 14] was 85 to 94% and the pest or weed control at 70 g/ha [2, 15] was 0 to 29%. It also gave a pest or weed control at 140 g/ha [2, 15] of 0 to 29%, a pest or weed control at 70 g/ha [2, 16] of 85 to 94% and a pest or weed control at 140 g/ha [2, 16] of 85 to 94%. For the same molecule, the pest or weed control at 70 g/ha [2, 17] was 0 to 29%, the pest or weed control at 140 g/ha [2, 17] was 0 to 29% and the melting point was 163 to 164 °C.
